Assays:
[1] = tested on: influenza virus A/Taiwan/1/86 (H1N1); experiment: organism not typed; type: cell-based; conditions: 72 h; MDCK cells infected with influenza A/Taiwan/1/86 (H1N1), MOI 0.001 or 0.01; CPE via ATP levels three days post-virus exposure
[2] = in vitro; conditions: dog

## O=C(N[C@H]1CCC[C@@H](Nc2cncc(-c3c[nH]c4c(F)cc(F)cc34)n2)C1)N1CCCC1 [Compound 25]
[1]
  IC50: 26 nM
[2]
  CC50 at 3 days: 9700 nM

## Cc1nc(-c2c[nH]c3c(F)cc(F)cc23)nc(N[C@H]2CCC[C@@H](NC(=O)c3cnn(C)c3)C2)c1F [Compound 14]
[1]
  IC50: 2 nM
[2]
  CC50 at 3 days: > 25000 nM

## Cc1nc(-c2c[nH]c3c(F)cc(F)cc23)nc(N[C@H]2CCC[C@@H](NC(=O)c3csc(C(=O)O)n3)C2)c1F [Compound 29]
[1]
  IC50: 2 nM
[2]
  CC50 at 3 days: 21000 nM

## Cc1nc(-c2c[nH]c3c(F)cc(F)cc23)nc(N[C@H]2CCC[C@@H](NC(=O)c3cnn[nH]3)C2)c1F [Compound 15]
[1]
  IC50: 0.2 nM
[2]
  CC50 at 3 days: 3400 nM

## O=C(N[C@H]1CCC[C@@H](Nc2nc(-c3c[nH]c4c(F)cc(F)cc34)nc(C(=O)O)c2F)C1)c1cnn[nH]1 [Compound 36]
[1]
  IC50: 7 nM
[2]
  CC50 at 3 days: > 25000 nM

## O=C(N[C@H]1CCC[C@@H](Nc2cnnc(-c3c[nH]c4c(F)cc(F)cc34)n2)C1)N1CCCC1 [Compound 28]
[1]
  IC50: 8 nM
[2]
  CC50 at 3 days: 15500 nM

## Cc1nc(-c2c[nH]c3ncncc23)nc(N[C@@H]2CCC[C@H](NC(=O)c3ccccn3)C2)c1F [Compound 21]
[1]
  IC50: 1 nM
[2]
  CC50 at 3 days: > 25000 nM

## Cc1nc(-c2c[nH]c3c(F)cc(F)cc23)nc(N[C@H]2CCC[C@@H](NC(=O)c3cn(C)cn3)C2)c1F [Compound 13]
[1]
  IC50: 1 nM
[2]
  CC50 at 3 days: 10400 nM

## O=C(O)[C@H]1C2CCC(CC2)[C@@H]1Nc1cnnc(-c2c[nH]c3c(F)cc(F)cc23)n1 (racemic) [Compound 6]
[1]
  IC50: 130 nM
[2]
  CC50 at 3 days: > 5000 nM
